Data from patent US20110143948A1, “MOLECULAR SIGNATURES AND BIOMARKERS ASSOCIATED WITH MELANOMA AND METHODS OF USE THEREOF” (priority 2008, published 2011).

Tested on: ncRNAs (SEQ ID NO 28-89)
Assay: ncRNA arrays of melanocytes, keratinocytes, normal skin, melanoma cell lines and patient samples
Parameters: species or system human
Conditions: for ncRNA array expression, patient 2: melanoma patient 2 sample compared to normal skin; for ncRNA array expression, patient 3: melanoma patient 3 sample compared to normal skin; for ncRNA array expression, patient 4: melanoma patient 4 sample compared to normal skin; for ncRNA array expression, patient 5: melanoma patient 5 sample compared to normal skin; for ncRNA array expression, patient 6: melanoma patient 6 sample compared to normal skin; for ncRNA array expression, patient 7: melanoma patient 7 sample compared to normal skin; for ncRNA array expression, patient 8: melanoma patient 8 sample compared to normal skin; for ncRNA array expression, patient 9: melanoma patient 9 sample compared to normal skin; for ncRNA array expression, patient 10: melanoma patient 10 sample compared to normal skin; for ncRNA array expression, patient 19: melanoma patient 19 sample compared to normal skin; for ncRNA array expression, patient 20: melanoma patient 20 sample compared to normal skin; for ncRNA array expression, patient 21: melanoma patient 21 sample compared to normal skin; for ncRNA array expression, patient 22: melanoma patient 22 sample compared to normal skin; for ncRNA array expression, patient 23: melanoma patient 23 sample compared to normal skin; for ncRNA array expression, patient 24: melanoma patient 24 sample compared to normal skin; for ncRNA array expression, patient 25: melanoma patient 25 sample compared to normal skin; for ncRNA array expression, patient 26: melanoma patient 26 sample compared to normal skin; for ncRNA array expression, patient 27: melanoma patient 27 sample compared to normal skin; for ncRNA array expression, patient 28: melanoma patient 28 sample compared to normal skin; for ncRNA array expression, patient 29: melanoma patient 29 sample compared to normal skin; for ncRNA array expression, patient 30: melanoma patient 30 sample compared to normal skin
Outline: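 Differential ncRNA expression was defined against melanocytes or normal skin after subtracting keratinocyte-specific signals, with confirmation by qRT-PCR and Northern blot. Samples were melanoma cell lines, patient tumours, melanocytes, keratinocytes and normal skin, hybridised to a >10,000-probe (>200 nt) ncRNA array that also carries RefSeq mRNA probes.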

Row | Substance | ncRNA array expression, patient 2 | ncRNA array expression, patient 3 | ncRNA array expression, patient 4 | ncRNA array expression, patient 5 | ncRNA array expression, patient 6 | ncRNA array expression, patient 7 | ncRNA array expression, patient 8 | ncRNA array expression, patient 9 | ncRNA array expression, patient 10 | ncRNA array expression, patient 19 | ncRNA array expression, patient 20 | ncRNA array expression, patient 21 | ncRNA array expression, patient 22 | ncRNA array expression, patient 23 | ncRNA array expression, patient 24 | ncRNA array expression, patient 25 | ncRNA array expression, patient 26 | ncRNA array expression, patient 27 | ncRNA array expression, patient 28 | ncRNA array expression, patient 29 | other results
1 | SEQ ID NO 71 (AAAATTCCAAGAGGGCCTTTTCGAATAGACGCATGAACGGTGTTTGTGTCTGGATCGTCC; listed as DNA, chemistry not given here; listed as Homo sapiens) | 0.7413 | 0.6126 | 1.336 | 2.628 | 1.002 | 1.936 | 0.7221 | 0.1592 | 1.787 | 3.439 | 1.577 | 1.245 | 1.105 | 0.258 | 2.527 | 2.034 | 1.058 | 1.849 | 0.926 | 2.387 | ncRNA array expression, patient 30: −2.464
2 | SEQ ID NO 72 (AATTACATATATTTAGCAGGATTTTTATTTGCCGTGATATATAGGATAATTTAGTCTTTG; listed as DNA, chemistry not given here; listed as Homo sapiens) | 2.217 | 2.382 | 2.566 | 1.096 | 2.336 | 2.665 | 3.323 | −0.6629 | 2.245 | 0.2985 | 1.011 | 0.6264 | 0.5499 | 0.09129 | 2.832 | 3.664 | 3.29 | 2.308 | 1.044 | 2.583 | ncRNA array expression, patient 30: −1.3285
3 | SEQ ID NO 73 (AAAGTTTCCCCATAATGCTCTTGCAAGTGAATATGAGCTGTGGTTTTTGCAGTGGAGTTA; listed as DNA, chemistry not given here; listed as Homo sapiens) | −0.1172 | 1.314 | 2.477 | −0.06181 | 1.506 | −0.179 | 1.518 | 1.007 | 1.767 | 3.505 | 0.6301 | 2.332 | 0.9622 | 0.07892 | 0.3377 | 1.57 | 1.308 | 0.1447 | 2.166 | 0.9153 | ncRNA array expression, patient 30: −0.2612
4 | SEQ ID NO 74 (TATATTACAGGAGTTGTCTATACGATTATAGTACCTGATTCTTTGGACATATCATTGAAC; listed as DNA, chemistry not given here; listed as Homo sapiens) | 2.155 | 1.879 | 2.326 | 0.3239 | 0.8281 | 2.016 | 1.309 | 0.6157 | 2.172 | −0.2091 | 0.8773 | 1.569 | 0.2398 | 1.776 | 0.8669 | 2.599 | 2.626 | 0.4062 | 2.421 | 1.974 | ncRNA array expression, patient 30: −1.075
5 | SEQ ID NO 75 (CAAGTGGGAAGAAAAAGAGCCCTACGTGGTGACATTCTGGAAGGATATCATGGATGATTG; listed as DNA, chemistry not given here; listed as Homo sapiens) | 0.5875 | 0.2177 | 1.062 | 1.072 | 1.853 | 2.114 | 2.605 | 1.117 | 0.6968 | 1.219 | 2.945 | 1.592 | 1.681 | 1.545 | 2.209 | −0.3024 | 0.226 | 3.291 | 1.546 | 2.221 | ncRNA array expression, patient 30: −1.4645
6 | SEQ ID NO 76 (TGTTTCTAATGCATACTGTGAAAGGAAAAAAAATCACAGTTATCCACCTTCTCAGGGCCT; listed as DNA, chemistry not given here; listed as Homo sapiens) | −1.682 | −1.051 | −1.297 | −1.036 | 0.3953 | −1.741 | −1.681 | −1.284 | −0.6169 | −0.775 | −1.184 | −1.216 | −0.05441 | 0.7328 | −1.262 | −1.549 | −1.597 | −1.555 | −1.598 | −1.765 | ncRNA array expression, patient 30: 0.4068
7 | SEQ ID NO 77 (AAGTTTCCACGGCAGGTTCTCGTAGCACCTTTGGTCAAGAACTGAAGGGGCCTTTAGATG; listed as DNA, chemistry not given here; listed as Homo sapiens) | −2.141 | −1.9159 | −2.042 | −1.549 | −0.8383 | −1.639 | −1.644 | −2.053 | −2.146 | −0.2581 | −1.526 | −1.23 | −0.5892 | 0.23 | −1.578 | −2.219 | −2.157 | −1.387 | −1.165 | −1.796 | ncRNA array expression, patient 30: 0.6447
8 | SEQ ID NO 78 (ATGGAAAGGCCAGGGGAGGGTGGAGCTCAGGAGTGGAAGCACAGGGACTAAGGCCTGAGC; listed as DNA, chemistry not given here; listed as Homo sapiens) | −3.7 | −3.634 | −3.593 | −3.41 | −1.8308 | −3.861 | −3.607 | −3.9856 | −3.496 | −2.807 | −3.82 | −3.781 | −1.089 | −1.0414 | −3.419 | −3.518 | −3.351 | −3.653 | −3.215 | −3.656 | ncRNA array expression, patient 30: 1.597
